Source: PubChem BioAssay (NCI)
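Exposure lasted 48 hours, with cells grown in 96-well plates and compounds tested at five concentrations. Abbreviation: GI50, concentration required for 50% inhibition of growth. At the TGI there is no net growth.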

How the values were obtained:
Test in all cases: inhibition of tumour cell growth, NCI panel, 48 h
786-0 renal = system: 786-0 renal
A498 renal = system: A498 renal
A549 NSCLC = system: A549 NSCLC
ACHN renal = system: ACHN renal
BT-549 breast = system: BT-549 breast
CAKI-1 renal = system: CAKI-1 renal
CCRF-CEM leukemia = system: CCRF-CEM leukemia
COLO 205 colon = system: COLO 205 colon
DU-145 prostate = system: DU-145 prostate
EKVX NSCLC = system: EKVX NSCLC
HCC-2998 colon = system: HCC-2998 colon
HCT-116 colon = system: HCT-116 colon
HCT-15 colon = system: HCT-15 colon
HL-60(TB) leukemia = system: HL-60(TB) leukemia
HOP-62 NSCLC = system: HOP-62 NSCLC
HOP-92 NSCLC = system: HOP-92 NSCLC
HS 578T breast = system: HS 578T breast
HT29 colon = system: HT29 colon
IGROV1 ovarian = system: IGROV1 ovarian
K-562 leukemia = system: K-562 leukemia
KM12 colon = system: KM12 colon
LOX IMVI melanoma = system: LOX IMVI melanoma
M14 melanoma = system: M14 melanoma
MALME-3M melanoma = system: MALME-3M melanoma
MCF7 breast = system: MCF7 breast
MDA-MB-231 breast = system: MDA-MB-231 breast
MDA-MB-435 = system: MDA-MB-435
MDA-MB-468 breast = system: MDA-MB-468 breast
MOLT-4 leukemia = system: MOLT-4 leukemia
NCI-H226 lung = system: NCI-H226 lung

For `CNC(=O)c1cccc(N2CCc3c2ccc(NC(=O)Nc2ccc(N4CCN(C)CC4)c(C(F)(F)F)c2)c3F)c1`, the GI50 (786-0 renal) was 1.99 µM, the TGI (786-0 renal) was 8.25 µM and the GI50 (A498 renal) was 5.36 µM. The TGI (A498 renal) was 10.4 µM, the GI50 (A549 NSCLC) was 5.75 µM and the TGI (A549 NSCLC) was 13.9 µM. It also gave a GI50 (ACHN renal) of 5.61 µM, a TGI (ACHN renal) of 10.5 µM and a GI50 (BT-549 breast) of 5.14 µM. The TGI (BT-549 breast) was 11.1 µM, the GI50 (CAKI-1 renal) was 6.04 µM and the TGI (CAKI-1 renal) was 12 µM. It also gave a GI50 (CCRF-CEM leukemia) of 5.43 µM, a TGI (CCRF-CEM leukemia) of 29.3 µM and a GI50 (COLO 205 colon) of 6.46 µM. The TGI (COLO 205 colon) was 17.5 µM, the GI50 (DU-145 prostate) was 5.68 µM and the TGI (DU-145 prostate) was 11.3 µM. It also gave a GI50 (EKVX NSCLC) of 5.05 µM, a TGI (EKVX NSCLC) of 10.2 µM and a GI50 (HCC-2998 colon) of 5.3 µM. For the same compound, the TGI (HCC-2998 colon) was 10.3 µM, the GI50 (HCT-116 colon) was 5.06 µM and the TGI (HCT-116 colon) was 13.8 µM. It also gave a GI50 (HCT-15 colon) of 3.92 µM, a TGI (HCT-15 colon) of 9.15 µM and a GI50 (HL-60(TB) leukemia) of 7.63 µM. For the same compound, the TGI (HL-60(TB) leukemia) was 25.7 µM, the GI50 (HOP-62 NSCLC) was 5.23 µM and the TGI (HOP-62 NSCLC) was 11.9 µM. It also gave a GI50 (HOP-92 NSCLC) of 5.36 µM, a TGI (HOP-92 NSCLC) of 11.6 µM and a GI50 (HS 578T breast) of 1.46 µM. For the same compound, the TGI (HS 578T breast) was 8.54 µM, the GI50 (HT29 colon) was 1.44 µM and the TGI (HT29 colon) was 8.51 µM. For the same compound, the GI50 (IGROV1 ovarian) was 6.21 µM, the TGI (IGROV1 ovarian) was 11.7 µM and the GI50 (K-562 leukemia) was 6.69 µM. The TGI (K-562 leukemia) was > 36.5 µM, the GI50 (KM12 colon) was 0.166 µM and the TGI (KM12 colon) was 6.5 µM. For the same compound, the GI50 (LOX IMVI melanoma) was 5.15 µM, the TGI (LOX IMVI melanoma) was 10.3 µM and the GI50 (M14 melanoma) was 6.78 µM. It also gave a TGI (M14 melanoma) of 14.3 µM, a GI50 (MALME-3M melanoma) of 4.17 µM and a TGI (MALME-3M melanoma) of 8.7 µM. For the same compound, the GI50 (MCF7 breast) was 4.63 µM, the TGI (MCF7 breast) was 10.3 µM and the GI50 (MDA-MB-231 breast) was 2.93 µM. For the same compound, the TGI (MDA-MB-231 breast) was 7.59 µM, the GI50 (MDA-MB-435) was 5.28 µM and the TGI (MDA-MB-435) was 10.5 µM. For the same compound, the GI50 (MDA-MB-468 breast) was 5.41 µM, the TGI (MDA-MB-468 breast) was 11.3 µM and the GI50 (MOLT-4 leukemia) was 1.7 µM. For the same compound, the TGI (MOLT-4 leukemia) was 20.9 µM and the GI50 (NCI-H226 lung) was 6.12 µM.
